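A five-concentration, 48-hour dose response in 96-well plates underlies each endpoint, interpolated linearly between surrounding concentrations. GI50 = concentration required for 50% inhibition of growth.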 Activity calls are given as the source filed them. Cut-off read from the data, not from the text of the source: active = GI50 up to about 1.1 µM and inactive = higher.
Experiments:
Assay in all cases: NCI anticancer screen, dose series, 48 h
HCC 2998 = test system: HCC 2998
OVCAR-3 = test system: OVCAR-3
SK-OV-3 = test system: SK-OV-3
COLO 205 = test system: COLO 205
A549 = test system: A549
HL-60 = test system: HL-60
Malme-3M = test system: Malme-3M
SF-295 = test system: SF-295
SR = test system: SR
NCI/ADR-RES = test system: NCI/ADR-RES
SNB-19 = test system: SNB-19
TK-10 = test system: TK-10
SF-268 = test system: SF-268
A498 = test system: A498
HCT-15 = test system: HCT-15
UACC-257 = test system: UACC-257
SF-539 = test system: SF-539
IGROV-1 = test system: IGROV-1
OVCAR-4 = test system: OVCAR-4
UO-31 = test system: UO-31
ACHN = test system: ACHN
CAKI-1 = test system: CAKI-1
EKVX = test system: EKVX
MOLT-4 = test system: MOLT-4
SNB-75 = test system: SNB-75
SK-MEL-28 = test system: SK-MEL-28
RPMI-8226 = test system: RPMI-8226
NCI-H226 = test system: NCI-H226
OVCAR-5 = test system: OVCAR-5
OVCAR-8 = test system: OVCAR-8
HT-29 = test system: HT-29
HOP-92 = test system: HOP-92
SW-620 = test system: SW-620
NCI-H522 = test system: NCI-H522
MDA-MB-435 = test system: MDA-MB-435
NCI-H23 = test system: NCI-H23
U-251 = test system: U-251
DU-145 = test system: DU-145
NCI-H460 = test system: NCI-H460
BT-549 = test system: BT-549
Hs-578T = test system: Hs-578T
KM12 = test system: KM12
HCT-116 = test system: HCT-116
LOX IMVI = test system: LOX IMVI
HOP-62 = test system: HOP-62
RXF 393 = test system: RXF 393
SK-MEL-2 = test system: SK-MEL-2
CCRF-CEM = test system: CCRF-CEM
SK-MEL-5 = test system: SK-MEL-5
T47D = test system: T47D
UACC-62 = test system: UACC-62
MCF7 = test system: MCF7
MDA-MB-231 = test system: MDA-MB-231
PC-3 = test system: PC-3
M14 = test system: M14
786-0 = test system: 786-0
MDA-N = test system: MDA-N
K562 = test system: K562
SN12C = test system: SN12C

C=C1[C@H](OC(=O)C(C)C)[C@]23CC4(O)[C@@H]5[C@@]6(C)CCC[C@]57C([C@@H]2C[C@@]1(O)[C@H](O)[C@@H]73)N4C6
GI50 (HCC 2998): 27 µM (inactive)
GI50 (OVCAR-3): > 100 µM (inactive)
GI50 (SK-OV-3): 98.6 µM (inactive)
GI50 (COLO 205): > 100 µM (inactive)
GI50 (A549): > 100 µM (inactive)
GI50 (HL-60): > 100 µM (inactive)
GI50 (Malme-3M): > 100 µM (inactive)
GI50 (SF-295): > 100 µM (inactive)
GI50 (SR): > 100 µM (inactive)
GI50 (NCI/ADR-RES): > 100 µM (inactive)
GI50 (SNB-19): > 100 µM (inactive)
GI50 (TK-10): > 100 µM (inactive)
GI50 (SF-268): > 100 µM (inactive)
GI50 (A498): > 100 µM (inactive)
GI50 (HCT-15): > 100 µM
GI50 (UACC-257): > 100 µM (inactive)
GI50 (SF-539): > 100 µM (inactive)
GI50 (IGROV-1): > 100 µM (inactive)
GI50 (OVCAR-4): > 100 µM (inactive)
GI50 (UO-31): > 100 µM (inactive)
GI50 (ACHN): 72.8 µM (inactive)
GI50 (CAKI-1): > 100 µM (inactive)
GI50 (EKVX): > 100 µM (inactive)
GI50 (MOLT-4): > 100 µM (inactive)
GI50 (SNB-75): > 100 µM (inactive)
GI50 (SK-MEL-28): > 100 µM (inactive)
GI50 (RPMI-8226): > 100 µM (inactive)
GI50 (NCI-H226): > 100 µM (inactive)
GI50 (OVCAR-5): > 100 µM (inactive)
GI50 (OVCAR-8): > 100 µM (inactive)
GI50 (HT-29): > 100 µM (inactive)
GI50 (HOP-92): > 100 µM (inactive)
GI50 (SW-620): > 100 µM (inactive)
GI50 (NCI-H522): > 100 µM (inactive)
GI50 (MDA-MB-435): > 100 µM (inactive)
GI50 (NCI-H23): > 100 µM (inactive)
GI50 (U-251): > 100 µM (inactive)
GI50 (DU-145): > 100 µM (inactive)
GI50 (NCI-H460): > 100 µM (inactive)
GI50 (BT-549): > 100 µM (inactive)
GI50 (Hs-578T): > 100 µM (inactive)
GI50 (KM12): > 100 µM (inactive)
GI50 (HCT-116): > 100 µM (inactive)
GI50 (LOX IMVI): > 100 µM (inactive)
GI50 (HOP-62): > 100 µM (inactive)
GI50 (RXF 393): > 100 µM (inactive)
GI50 (SK-MEL-2): > 100 µM (inactive)
GI50 (CCRF-CEM): > 100 µM (inactive)
GI50 (SK-MEL-5): > 100 µM (inactive)
GI50 (T47D): > 100 µM (inactive)
GI50 (UACC-62): > 100 µM (inactive)
GI50 (MCF7): > 100 µM (inactive)
GI50 (MDA-MB-231): > 100 µM (inactive)
GI50 (PC-3): > 100 µM (inactive)
GI50 (M14): > 100 µM (inactive)
GI50 (786-0): > 100 µM (inactive)
GI50 (MDA-N): > 100 µM (inactive)

C/C(=N/NC(=S)Nc1ccccc1Cl)c1ccccn1
GI50 (HCC 2998): 2.98 µM (inactive)
GI50 (OVCAR-3): 0.0136 µM (active)
GI50 (SK-OV-3): 0.043 µM (active)
GI50 (COLO 205): < 0.0162 µM (active)
GI50 (A549): 0.0582 µM (active)
GI50 (HL-60): < 0.0113 µM (active)
GI50 (Malme-3M): 0.429 µM (active)
GI50 (SF-295): 0.0986 µM (active)
GI50 (SR): < 0.0139 µM (active)
GI50 (NCI/ADR-RES): 0.0914 µM (active)
GI50 (SNB-19): 1.79 µM (inactive)
GI50 (TK-10): 0.113 µM (active)
GI50 (SF-268): 0.0843 µM (active)
GI50 (A498): 1.46 µM (inactive)
GI50 (HCT-15): < 0.0165 µM
GI50 (UACC-257): < 0.0151 µM (active)
GI50 (K562): < 0.01 µM (active)
GI50 (SF-539): 1.11 µM (active)
GI50 (IGROV-1): < 0.0137 µM (active)
GI50 (OVCAR-4): 0.249 µM (active)
GI50 (SN12C): 0.129 µM (active)
GI50 (UO-31): 0.583 µM (active)
GI50 (ACHN): 0.0402 µM (active)
GI50 (CAKI-1): 0.0675 µM (active)
GI50 (EKVX): 0.098 µM (active)
GI50 (MOLT-4): < 0.0109 µM (active)
GI50 (SNB-75): 8.73 µM (inactive)
GI50 (SK-MEL-28): 4.06 µM (inactive)
GI50 (RPMI-8226): < 0.0149 µM (active)
GI50 (NCI-H226): < 0.0401 µM (active)
GI50 (OVCAR-5): < 0.0211 µM (active)
GI50 (OVCAR-8): 0.0206 µM (active)
GI50 (HT-29): < 0.01 µM (active)
GI50 (HOP-92): 1.03 µM (active)
GI50 (SW-620): < 0.0168 µM (active)
GI50 (NCI-H522): 1.11 µM (active)
GI50 (MDA-MB-435): 0.665 µM (active)
GI50 (NCI-H23): < 0.0161 µM (active)
GI50 (U-251): 0.0418 µM (active)
GI50 (DU-145): 1.06 µM (active)
GI50 (NCI-H460): 0.0382 µM (active)
GI50 (BT-549): 4.39 µM (inactive)
GI50 (Hs-578T): 8.53 µM (inactive)
GI50 (KM12): 0.0705 µM (active)
GI50 (HCT-116): < 0.0129 µM (active)
GI50 (LOX IMVI): 0.01 µM (active)
GI50 (HOP-62): < 0.0415 µM (active)
GI50 (RXF 393): 1.41 µM (inactive)
GI50 (SK-MEL-2): 1.98 µM (inactive)
GI50 (CCRF-CEM): < 0.01 µM (active)
GI50 (SK-MEL-5): 0.0753 µM (active)
GI50 (T47D): < 0.0371 µM (active)
GI50 (UACC-62): 0.173 µM (active)
GI50 (MCF7): < 0.0119 µM (active)
GI50 (MDA-MB-231): < 0.0164 µM (active)
GI50 (PC-3): < 0.0143 µM (active)
GI50 (M14): < 0.0211 µM (active)
GI50 (786-0): 0.0889 µM (active)
GI50 (MDA-N): 0.452 µM (active)

— ChEMBL document CHEMBL1201862, “PubChem BioAssay data set” (2004)
